Patent publication US20170052170A1, “NOVEL CELL LINES AND METHODS” (priority 2009, published 2017)
One block for each compound: values may come before it. Bridge positions count the residues as written; N and C are the ends. Peptide text beside a SMILES is read from it.

Experiments:
[1] = system: human CFTR; test: Fluorescence membrane potential assay, CHO cell lines stably expressing CFTR; format: cell-based; conditions: 15,000 cells/well, 384-well plate; read-out: EC50 (cell fluorescence response)
Experimental: CHO cell lines stably expressing CFTR were maintained under standard cell culture conditions in Ham's F12 medium supplemented with 10% fetal bovine serum and glutamine. On the day before assay, the cells were harvested from stock plates and plated into black clear-bottom 384 well assay plates. The assay plates were maintained in a 37° C. cell culture incubator under 5% CO2 for 22-24 hours. The media was then removed from the assay plates and blue membrane potential dye (Molecular Devices Inc.) diluted in loading buffer (137 mM NaCl, 5 mM KCl, 1.25 mM CaCl2, 25 mM HEPES, 10 mM glucose) was added and allowed to incubate for 1 hour at 37° C. […] The cellular response as a function of changes in cell fluorescence was monitored over time by a fluorescent plate reader (Hamamatsu FDSS). […] Z' value for the produced stable CFTR-expressing cell line was calculated using a high-throughput compatible fluorescence membrane potential assay. The fluorescence membrane potential assay protocol was performed substantially according to the protocol in Example 12. […] Cell responses in the two conditions were monitored using a fluorescent plate reader (Hamamatsu FDSS). Mean and standard deviations in the two conditions were calculated and Z' was computed using the method disclosed in Zhang et al., J Biomol Screen, 4(2): 67-73, (1999). […]

[2] = system: human bitter receptor-Gα15 cell lines; test: isoproterenol dose response (intracellular free calcium) in human bitter receptor-Gα15 cell lines; format: cell-based; conditions: change in intracellular free calcium, read-out: EC50 in a dose response curve conducted with the cell or cell line
Source text: In some embodiments, the bitter receptor is a functional bitter receptor. In some embodiments, the cell or cell line has a change in the concentration of intracellular free calcium when contacted with isoproterenol. […] In some embodiments, the cell or cell line has a signal to noise ratio of greater than 1.
According to yet another aspect of the present invention, a method of identifying a modulator of a bitter receptor function comprises: a) exposing a cell or cell line that stably expresses a bitter receptor to a test compound; and b) detecting a change in a function of the bitter receptor. In some embodiments, the detecting utilizes an assay that measures intracellular free calcium. In some embodiments, the intracellular free calcium is measured using one or more calcium-sensitive fluorescent dyes, a fluorescence microscope, and optionally a fluorescent plate reader, wherein at least one fluorescent dye binds free calcium. In some other embodiments, the intracellular free calcium is monitored by real-time imaging using one or more calcium-sensitive fluorescent dyes, wherein at least one fluorescent dye binds free calcium.
FIG. 16 is a graph showing dose response curves of relative responses to isoproterenol in 25 human bitter receptor-Gα15 cell lines.

[3] = target: T1, human GC-C (Homo sapiens, UniProt P25092, F281L); test: cGMP competitive ELISA / Direct Cyclic GMP Enzyme Immunoassay, GC-C-expressing 293T cell line; format: cell-based; design: expressed in transfected cells; host or cells: 293T
Experimental: Populations of cells were tested using functional criteria. The Direct Cyclic GMP Enzyme Immunoassay Kit (Cat. 900-014; AssayDesigns, Inc.) was used according to manufacturer's instructions: (http://www.assaydesigns.com/objects/catalog//product/extras/900-014.pdf). Cells were tested at 4 different densities in 96- or 384-well plates and responses were analyzed. The following conditions were used for the GC-C-expressing cell lines of the invention: • Clone screening: 1:2 and 1:3 splits of confluent 96-well plates 48 hour prior to assay, 30 minutes guanylin treatment. • Dose-response studies: densities of 20,000, 40,000, 60,000, 80,000, 120,000 and 160,000 per well, 30 minutes guanylin treatment (see Example 8). • Z′ studies: densities of 160,000 and 200,000 per well were used, 30 minutes guanylin treatment (see Example 9).
A competitive ELISA for detection of cGMP was used to characterize native GC-C function in the produced GC-C-expressing cell line. Cells expressing GC-C were maintained under standard cell culture conditions in Dulbecco's Modified Eagles medium (DMEM) supplemented with 10% fetal bovine serum, glutamine and HEPES and grown in T175 cm flasks. For the ELISA, the cells were plated into coated 96-well plates (poly-D-lysine).
Cells were washed twice with serum-free medium and incubated with 1 mM IBMX for 30 minutes. Desired activators (i.e., guanylin, 0.001-40 μM) were then added to the cells and incubated for 30-40 minutes. Supernatant was removed, and the cells were washed with TBS buffer. […]. This was followed by lysis with 0.1N HCl and a freeze/thaw cycle at −20° C./room temperature. […]
All of the following steps were performed at room temperature, unless otherwise indicated. […] The absorbance was then read at 405 nm on a SAFIRE^2™ plate reader (Tecan). […]
Z′ for the produced GC-C-expressing cell line was calculated using a direct competitive ELISA assay. […] Absorbance (corresponding to cGMP levels) in the two conditions was monitored using a SAFIRE^2™ plate reader (Tecan). […]

[4] = target: T1, human GC-C; conditions: Forte et al. 1999; cited from earlier work

T1 sequence (P25092 24-1073 F281L): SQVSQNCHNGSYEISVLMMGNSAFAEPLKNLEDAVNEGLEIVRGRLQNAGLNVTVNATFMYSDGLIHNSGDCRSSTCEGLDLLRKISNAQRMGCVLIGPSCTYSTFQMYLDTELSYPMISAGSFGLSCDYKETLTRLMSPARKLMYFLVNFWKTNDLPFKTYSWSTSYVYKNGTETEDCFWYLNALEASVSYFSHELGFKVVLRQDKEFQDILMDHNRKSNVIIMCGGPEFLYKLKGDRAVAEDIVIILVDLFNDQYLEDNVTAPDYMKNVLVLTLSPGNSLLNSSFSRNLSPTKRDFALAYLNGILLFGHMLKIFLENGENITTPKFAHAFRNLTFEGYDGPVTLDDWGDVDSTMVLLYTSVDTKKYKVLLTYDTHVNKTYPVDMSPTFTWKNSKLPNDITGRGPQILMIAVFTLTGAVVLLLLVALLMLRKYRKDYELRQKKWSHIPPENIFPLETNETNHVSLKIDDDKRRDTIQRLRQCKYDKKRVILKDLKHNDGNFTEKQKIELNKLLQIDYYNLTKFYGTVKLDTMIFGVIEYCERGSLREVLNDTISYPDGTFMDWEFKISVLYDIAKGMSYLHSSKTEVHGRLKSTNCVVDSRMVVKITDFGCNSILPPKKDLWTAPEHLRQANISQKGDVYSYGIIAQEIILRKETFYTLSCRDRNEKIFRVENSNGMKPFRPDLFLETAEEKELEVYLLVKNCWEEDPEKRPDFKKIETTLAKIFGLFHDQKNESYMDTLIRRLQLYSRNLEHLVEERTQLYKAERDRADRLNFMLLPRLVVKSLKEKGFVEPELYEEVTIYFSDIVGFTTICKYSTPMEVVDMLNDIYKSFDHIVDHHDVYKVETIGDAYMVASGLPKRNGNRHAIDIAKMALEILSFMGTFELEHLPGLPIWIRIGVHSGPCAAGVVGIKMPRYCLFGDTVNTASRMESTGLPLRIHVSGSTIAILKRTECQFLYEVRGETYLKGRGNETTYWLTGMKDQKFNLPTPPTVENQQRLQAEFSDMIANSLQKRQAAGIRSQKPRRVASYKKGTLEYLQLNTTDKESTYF

EC50 [1]: 256 nM
Compound: C=C[C@@]1(C)CC(=O)[C@]2(O)[C@@]3(C)[C@@H](O)CCC(C)(C)[C@@H]3[C@H](O)[C@H](OC(C)=O)[C@@]2(C)O1 [forskolin]

EC50 [2]: 1 to 20 nM
Compound: CC(C)NCC(O)c1ccc(O)c(O)c1 (stereo not drawn) [isoproterenol]

absorbance in cGMP ELISA (reduction corresponds to increased cGMP levels) ([3]; 100 nM guanylin): Reduction in absorbance
EC50 ([3]; 30 minutes treatment, 96-well plate, read-out: EC50 value (cGMP response)): 1.1 nM
level of cGMP ([3]; produced GC-C-expressing cell line, low concentrations of guanylin): 6 pmol/mL
Compound: CC[C@H](C)[C@@H]1NC(=O)[C@H](CCC(=O)O)NC(=O)[C@@H](NC(=O)[C@@H](NC(=O)CNC(=O)[C@@H]2CCCN2)[C@@H](C)O)CSSC[C@@H]2NC(=O)[C@H](C)NC(=O)[C@H](C)NC(=O)[C@H](Cc3ccc(O)cc3)NC(=O)[C@H](C)NC(=O)[C@H](CSSC[C@@H](C(=O)O)NC(=O)CNC(=O)[C@H]([C@@H](C)O)NC2=O)NC1=O [guanylin] (H-PGTCEICAYAACTGC-OH; disulfide 4-12, 7-15 (inferred); N-terminus and C-terminus assumed)
level of cGMP previously reported in other cell lines [4]: 3.5 pmol/mL
